In US10517296B2, “Insect pest control material” ([…] Control Consortium, priority 2015, dated 2019):

Key:
[1] = system: Anopheles gambiae Kisumu-strain; assay: Basic insecticidal activity, topical application method (Test Example 1); type: in vivo; details: for 50% Lethal Dose (LD50): female adult Anopheles gambiae Kisumu-strain, topical 0.3 μL acetone solution, mortality after 24 hours, probit method; for Relative Efficacy: ratio of LD50 values relative to Deltamethrin (=1), Kisumu-strain
Description: (§1) The basic insecticidal activity of the present compound was examined using a topical application method. Various concentrations of acetone solutions of the present compound were previously prepared. […] After the treatment, the female adults of Cancer Vieja Madara mosquito were moved into a plastic cup (having a diameter of 9 cm and a height of about 4.5 cm), and was fed with 5% sugar water. The mortality after 24 hours was examined. The number of the tested female adults of Cancer Vieja Madara mosquito was 10 heads per each one concentration in two replicate experiments. The 50% lethal dose (the LD50 value) of the present compound was calculated from the test result using probit method. The same experiment was conducted using Deltamethrin as a control. The lower 50% lethal dose of a compound means the higher basic insecticidal activity of the compound. The ratio of the LD50 value of the present compound relative to the LD50 value of Deltamethrin was calculated to acquire the relative efficacy of the present compound to Deltamethrin.

[2] = system: Anopheles gambiae VK7-strain; assay: Basic insecticidal activity, topical application method, pyrethroid-resistive strain (Test Example 3); type: in vivo; details: for 50% Lethal Dose (LD50): pyrethroid-resistive female adult Anopheles gambiae VK7-strain, topical application, mortality after 24 hours; for Relative Efficacy: ratio of LD50 values relative to Deltamethrin (=1), VK7-strain
Description: as §1
The basic insecticidal activity of each of the present compound and Deltamethrin was examined using the same method as that used in Test Example 1. Here the tested female adults of Cancer Vieja Madara mosquito were pyrethroid-resistive female adults of Cancer Vieja Madara mosquito (Anopheles gambiae VK7-strain), and the number of the tested insects was 10 heads per each one concentration in two replicate experiments. The ratio of the LD50 value of the present compound relative to the LD50 value of Deltamethrin was calculated to acquire the relative efficacy of the present compound to Deltamethrin.

| Structure (SMILES) | 50% Lethal Dose (LD50) [1] [μg/female] | Relative Efficacy [1] | 50% Lethal Dose (LD50) [2] [μg/female] | Relative Efficacy [2] |
| --- | --- | --- | --- | --- |
| CCc1ncnc(NCCc2ccc(C(F)(F)F)cc2)c1Cl [The present compound, 5-chloro-4-ethyl-6-[2-(4-trifluoromethylphenyl)ethylamino]pyrimidine] | 0.0094 | 0.0100 | 0.01833 | 0.05674 |
| CC1(C)[C@H](C(=O)O[C@H](C#N)c2cccc(Oc3ccccc3)c2)[C@@H]1C=C(Br)Br [Deltamethrin] | 0.000094 | 1 | 0.00104 | 1 |
